Data on 31 compounds can be found in patent US7799824B2, “Quaternary salt CCR2 antagonists” (OraPharma, Inc., priority 2004, dated 2010).

In the first test the target is T1, CCR2 (Homo sapiens, UniProt P41597).
T1 sequence (P41597 1-360 isoform P41597-2): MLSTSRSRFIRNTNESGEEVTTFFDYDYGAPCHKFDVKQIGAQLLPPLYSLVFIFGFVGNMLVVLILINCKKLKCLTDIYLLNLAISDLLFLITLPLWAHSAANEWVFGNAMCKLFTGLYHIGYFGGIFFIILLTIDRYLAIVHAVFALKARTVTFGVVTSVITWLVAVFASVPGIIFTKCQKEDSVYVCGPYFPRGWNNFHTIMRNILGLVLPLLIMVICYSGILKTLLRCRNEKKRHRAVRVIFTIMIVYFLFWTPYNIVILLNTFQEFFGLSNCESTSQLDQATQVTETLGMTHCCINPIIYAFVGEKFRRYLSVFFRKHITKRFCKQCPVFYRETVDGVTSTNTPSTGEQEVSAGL
As to the kind of experiment: MCP-1 Receptor Binding Assay in THP-1 Cells. The conditions noted are these: MCP-1 binding to CCR2; test concentration of 25 μM, unless indicated otherwise; read-out: % Inhibition Ligand Binding. The protocol: THP-1 cells were obtained from American Type Culture Collection (Manassas, Va., USA). […] The cell density was maintained between 0.5×10^6 cells/mL.
Cells were then harvested onto a filter plate, dried, and 20 μL of Microscint 20 was added to each well. Plates were counted in a TopCount NXT, Microplate Scintillation & Luminescence Counter (Perkin-Elmer Life Sciences, Inc. Boston, Mass.). Blank values (buffer only) were subtracted from all values and drug treated values were compared to vehicle treated values. 1 μM cold MCP-1 was used for nonspecific binding.
Turning to `CCC[N+](C)(Cc1ccc(NC(=O)c2ccc3ccccc3c2)cc1)C1CCOCC1` (stereo not shown) [Cpd 92, methyl-{4-[(naphthalene-2-carbonyl)-amino]-benzyl}-propyl-(tetrahydro-pyran-4-yl)-ammonium iodide], the inhibition at 25 µM was 54%. Still for that read-out and setting: in the case of `C[N+](C)(Cc1ccc(CNC(=O)C2=Cc3cc(Br)ccc3OC2)cc1)C1CCOCC1` [Cpd 99, (4-{[(6-bromo-2H-chromene-3-carbonyl)-amino]-methyl}-benzyl)-dimethyl-(tetrahydro-pyran-4-yl)-ammonium iodide] it was 34%.

The test is the same for the next values; noted with them: THP-1 cells, 0.5 nM 125I labeled MCP-1, 2 hours at 30° C.; read-out: Mean Ligand Binding IC50 (inhibition of MCP-1 binding to CCR2).
Regarding `C[N+](C)(Cc1ccc(NC(=O)c2ccc3ccccc3c2)cc1)C1CCOCC1` [Cpd 90, dimethyl-{4-[(naphthalene-2-carbonyl)-amino]-benzyl}-(tetrahydro-pyran-4-yl)-ammonium iodide], the IC50 is 220 nM. The same measure, in the same setting: under `CC[N+](C)(Cc1ccc(NC(=O)c2ccc3ccccc3c2)cc1)C1CCOCC1` (stereo not shown) [Cpd 91, ethyl-methyl-{4-[(naphthalene-2-carbonyl)-amino]-benzyl}-(tetrahydro-pyran-4-yl)-ammonium iodide] stands 4100 nM. Still for that read-out and setting: under `C[N+](C)(Cc1ccc(NC(=O)c2ccc3ccc(Br)cc3c2)cc1)C1CCOCC1` [Cpd 93, {4-[(7-bromo-naphthalene-2-carbonyl)-amino]-benzyl}-dimethyl-(tetrahydro-pyran-4-yl)-ammonium iodide] stands 900 nM.

For the compound `C[N+](C)(Cc1ccc(NC(=O)c2ccc3ccc(Br)cc3c2)cc1)C1CCCCC1` [Cpd 94, {4-[(7-bromo-naphthalene-2-carbonyl)-amino]-benzyl}-cyclohexyl-dimethyl-ammonium iodide], the IC50 stood at 1300 nM. On the same count and under the same terms, under `C[N+](C)(Cc1ccc(NC(=O)C2=Cc3cc(Br)ccc3OC2)cc1)C1CCOCC1` [Cpd 95, {4-[(6-bromo-2H-chromene-3-carbonyl)-amino]-benzyl}-dimethyl-(tetrahydro-pyran-4-yl)-ammonium iodide] stands 180 nM; under `C[N+](C)(Cc1ccc(NC(=O)C2=Cc3cc(Cl)ccc3OC2)cc1)C1CCOCC1` [Cpd 96, {4-[(6-chloro-2H-chromene-3-carbonyl)-amino]-benzyl}-dimethyl-(tetrahydro-pyran-4-yl)-ammonium iodide], 110 nM; under `C[N+](C)(Cc1ccc(NC(=O)C2=Cc3cc(Br)ccc3OC2)cc1)C1CCCCC1` [Cpd 97, {4-[(6-bromo-2H-chromene-3-carbonyl)-amino]-benzyl}-cyclohexyl-dimethyl-ammonium iodide], 450 nM.

Consider `C[N+](C)(Cc1ccc(NC(=O)C2=Cc3cc(Cl)ccc3OC2)cc1)C1CCCCC1` [Cpd 98, {4-[(6-chloro-2H-chromene-3-carbonyl)-amino]-benzyl}-cyclohexyl-dimethyl-ammonium iodide], for which the IC50 stood at 270 nM. Consider `C[N+](C)(Cc1ccc(NC(=O)C2=Cc3c(Cl)cc(Cl)cc3OC2)cc1)C1CCOCC1` [Cpd 100, {4-[(5,7-dichloro-2H-chromene-3-carbonyl)-amino]-benzyl}-dimethyl-(tetrahydro-pyran-4-yl)-ammonium iodide], for which the IC50 turned out to be 520 nM. Same read-out and setting: in the case of `C[N+](C)(Cc1ccc(NC(=O)C2=Cc3c(Cl)cc(Cl)cc3OC2)cc1)C1CCCCC1` [Cpd 101, cyclohexyl-{4-[(5,7-dichloro-2H-chromene-3-carbonyl)-amino]-benzyl}-dimethyl-ammonium iodide] it was 1100 nM. On the same count and under the same terms, in the case of `C[N+](C)(Cc1ccc(NC(=O)C2=Cc3cc(Cl)cc(Cl)c3OC2)cc1)C1CCOCC1` [Cpd 102, {4-[(6,8-dichloro-2H-chromene-3-carbonyl)-amino]-benzyl}-dimethyl-(tetrahydro-pyran-4-yl)-ammonium iodide] it was 190 nM; in that of `Cc1ccc2c(c1)C=C(C(=O)Nc1ccc(C[N+](C)(C)C3CCOCC3)cc1)CO2` [Cpd 103, dimethyl-{4-[(6-methyl-2H-chromene-3-carbonyl)-amino]-benzyl}-(tetrahydro-pyran-4-yl)-ammonium iodide], 820 nM; in that of `COc1ccc2c(c1)C=C(C(=O)Nc1ccc(C[N+](C)(C)C3CCOCC3)cc1)CO2` [Cpd 104, {4-[(6-methoxy-2H-chromene-3-carbonyl)-amino]-benzyl}-dimethyl-(tetrahydro-pyran-4-yl)-ammonium iodide], 1900 nM. Turning to `Cc1ccc2c(c1)C=C(C(=O)Nc1ccc(C[N+](C)(C)C3CCCCC3)cc1)CO2` [Cpd 105, cyclohexyl-dimethyl-{4-[(6-methyl-2H-chromene-3-carbonyl)-amino]-benzyl}-ammonium iodide], the IC50 was determined as 320 nM. Take `COc1ccc2c(c1)C=C(C(=O)Nc1ccc(C[N+](C)(C)C3CCCCC3)cc1)CO2` [Cpd 106, cyclohexyl-{4-[(6-methoxy-2H-chromene-3-carbonyl)-amino]-benzyl}-dimethyl-ammonium iodide]: the IC50 was determined as 1100 nM. Still for that read-out and setting: under `C[N+](C)(Cc1ccc(NC(=O)C2=Cc3cc(Cl)cc(Cl)c3OC2)cc1)C1CCCCC1` [Cpd 107, cyclohexyl-{4-[(6,8-dichloro-2H-chromene-3-carbonyl)-amino]-benzyl}-dimethyl-ammonium iodide] stands 170 nM. Same read-out and setting: under `C[N+](C)(Cc1ccc(NC(=O)C2=Cc3cc(Cl)ccc3OC2)cc1)C[C@H]1CCCO1` [Cpd 108, (2R)-{4-[(6-chloro-2H-chromene-3-carbonyl)-amino]-benzyl}-dimethyl-(tetrahydro-furan-2-ylmethyl)-ammonium iodide] stands 3100 nM. On the same count and under the same terms, in the case of `C[N+](C)(Cc1ccc(NC(=O)C2=Cc3cc(Cl)ccc3OC2)cc1)C[C@@H]1CCCO1` [Cpd 109, (2S)-{4-[(6-chloro-2H-chromene-3-carbonyl)-amino]-benzyl}-dimethyl-(tetrahydro-furan-2-ylmethyl)-ammonium iodide] it was 5300 nM; in that of `C[N+](C)(Cc1ccc(NC(=O)C2=Cc3cc(Cl)ccc3OC2)cc1)[C@H]1CC2CCC1C2` (stereo partly drawn) [Cpd 110, (2S)-bicyclo[2.2.1]hept-2-yl-{4-[(6-chloro-2H-chromene-3-carbonyl)-amino]-benzyl}-dimethyl-ammonium iodide], 320 nM. On to `C[N+](C)(Cc1ccc(NC(=O)C2=Cc3cc(Cl)cc(Cl)c3OC2)cc1)C1CC2CCC1C2` (stereo not shown) [Cpd 111, bicyclo[2.2.1]hept-2-yl-{4-[(6,8-dichloro-2H-chromene-3-carbonyl)-amino]-benzyl}-dimethyl-ammonium iodide], for which the IC50 was found to be 2000 nM. As to `Cc1cccc2c1OCC(C(=O)Nc1ccc(C[N+](C)(C)C3CCOCC3)cc1)=C2` [Cpd 112, dimethyl-{4-[(8-methyl-2H-chromene-3-carbonyl)-amino]-benzyl}-(tetrahydro-pyran-4-yl)-ammonium iodide], the IC50 came to 150 nM.

As to `Cc1cccc2c1OCC(C(=O)Nc1ccc(C[N+](C)(C)C3CCCCC3)cc1)=C2` [Cpd 113, cyclohexyl-dimethyl-{4-[(8-methyl-2H-chromene-3-carbonyl)-amino]-benzyl}-ammonium iodide], the IC50 was 530 nM.

For `Cc1cc(Cl)cc2c1OCC(C(=O)Nc1ccc(C[N+](C)(C)C3CCCCC3)cc1)=C2` [Cpd 114, {4-[(6-chloro-8-methyl-2H-chromene-3-carbonyl)-amino]-benzyl}-cyclohexyl-dimethyl-ammonium iodide], the IC50 turned out to be 60 nM. On the same count and under the same terms, in the case of `Cc1cc(Cl)cc2c1OCC(C(=O)Nc1ccc(C[N+](C)(C)C3CCOCC3)cc1)=C2` [Cpd 115, {4-[(6-chloro-8-methyl-2H-chromene-3-carbonyl)-amino]-benzyl}-dimethyl-(tetrahydro-pyran-4-yl)-ammonium iodide] it was 50 nM.

As for `C[N+](C)(Cc1ccc(NC(=O)C2=Cc3ccc(Cl)c(Cl)c3OC2)cc1)C1CCCCC1` [Cpd 116, cyclohexyl-{4-[(7,8-dichloro-2H-chromene-3-carbonyl)-amino]-benzyl}-dimethyl-ammonium iodide], the IC50 worked out at 600 nM. The same measure, in the same setting: under `Cc1cc(Cl)cc2c1OCC(C(=O)Nc1ccc(C[N+](C)(C)C3CC4CCC3C4)cc1)=C2` (stereo not shown) [Cpd 117, bicyclo[2.2.1]hept-2-yl-{4-[(6-chloro-8-methyl-2H-chromene-3-carbonyl)-amino]-benzyl}-dimethyl-ammonium iodide] stands 120 nM; under `Cc1cc(Cl)cc2c1OCC(C(=O)Nc1ccc(C[N+](C)(C)C3CCCCCC3)cc1)=C2` [Cpd 118, {4-[(6-chloro-8-methyl-2H-chromene-3-carbonyl)-amino]-benzyl}-cycloheptyl-dimethyl-ammonium iodide], 200 nM. The same measure, in the same setting: under `Cc1cc(Cl)cc2c1OCC(C(=O)Nc1ccc(C[N+](C)(C)C3CCCC3)cc1)=C2` [Cpd 119, {4-[(6-chloro-8-methyl-2H-chromene-3-carbonyl)-amino]-benzyl}-cyclopentyl-dimethyl-ammonium iodide] stands 100 nM; under `Cc1cc(Cl)cc2c1OCC(C(=O)Nc1ccc(C[N+](C)(C)C3CCSC3)cc1)=C2` (stereo not shown) [Cpd 120, {4-[(6-chloro-8-methyl-2H-chromene-3-carbonyl)-amino]-benzyl}-dimethyl-(tetrahydro-thiophen-3-yl)-ammonium iodide], 30 nM.

For orientation: inhibition means the percentage by which the read-out fell short of the control. For orientation: IC50 means the concentration needed to halve the response being measured.
